Measured values published in US20050131238A1, “Spermicides” (SSL International plc, priority 2001, published 2005).

Legend:
sperm = conditions: 10 mM CPhM solution, incubation for 10 minutes; decreased from 80%; cited from earlier work
ME180 cells = test: Cell cytotoxicity (MTT cell viability assay); format: cell-based; conditions: Homo sapiens, ME-180, concentration giving 50% inhibition of cell viability vs control, ± SEM
Method: 2. Determination of Cell Cytotoxicity (MTT Cell Viability Assay)
The effect of compounds on vaginal cell viability is assessed using the MTT assay. MTT is a tetrazolium salt which is converted by viable cells to an insoluble […]. This colour conversion is measured by spectrophotometry. Data is then subjected to non-linear regression analysis to generate concentration response curves and subsequently an EC50 value curves using GraphPad Prism software (San Diego, Calif., USA). The EC50 value is the concentration of spermicide which produces 50% inhibition of cell viability compared to control.

human sperm = test: Evaluation of human sperm motility (spermicidal efficacy), manual microscopy; format: cell-based; conditions: concentration giving 50% inhibition of sperm motility vs control, motility determined within 30 s by manual microscopy, ± SEM, read-out: Inhibition Human Sperm Motility (ED50)
Source text: 1. Evaluation of Human Sperm Motility (Spermicidal Efficacy)
The number of motile sperm (%) is rapidly determined (within 30s) following exposure to varying concentrations of spermicide using manual microscopy. Using non-linear regression analysis motility data from these screens is used to generate concentration response curves and subsequently an ED50 value using GraphPad Prism software (San Diego, Calif., USA). The ED50 value is the concentration of spermicide which produces 50% inhibition of sperm motility compared to control.

Which “fertilising capacity of sperm” value (sperm) does the source give for `O=C(O)c1ccc(N2C(=O)C=CC2=O)cc1O` [CPhM, N-(4-carboxy-3-hydroxy-phenyl)-maleimide] here?
The value was 17%.

Which results are given for `O=C1C=CC(=O)N1c1ccccc1` [Compound 1]?
EC50 (ME180 cells): 370 µM; EC50 (human sperm): 32 µM

With `CCOC(=O)c1ccc(N2C(=O)C=CC2=O)cc1` [Compound 3] as the compound, how does the EC50 (ME180 cells) read?
Its EC50 is 363 µM.

What about the EC50 (human sperm) of the same compound?
The EC50 was 77 µM.

For `O=C1C=CC(=O)N1c1ccc(Nc2ccccc2)cc1` [Compound 4], which EC50 (ME180 cells) is on record?
The EC50 was 268 µM.

And the EC50 (human sperm)?
Its EC50 is 31 µM.

Which EC50 (ME180 cells) does the source give for `O=C1C=CC(=O)N1C1CCCCC1` [Compound 5] here?
The EC50 was 114 µM.

What about the EC50 (human sperm) of the same compound?
Its EC50 is 294 µM.

For `COC(=O)c1scc(C)c1N1C(=O)C=CC1=O` [Compound 6], which EC50 (ME180 cells) is on record?
Its EC50 is 88 µM.

And the EC50 (human sperm)?
The EC50 was 26 µM.

Which results are given for `O=C1C=CC(=O)N1c1ccc2c(c1)OCCO2` [Compound 7]?
EC50 (ME180 cells): 410 µM; EC50 (human sperm): 43 µM

Which results are given for `Cc1cc(N2C(=O)C=CC2=O)no1` [Compound 8]?
EC50 (ME180 cells): 858 µM; EC50 (human sperm): 79 µM

What does the source list for `N#Cc1cccc(N2C(=O)C=CC2=O)c1` [Compound 9]?
EC50 (ME180 cells): 143 µM; EC50 (human sperm): 56 µM

For `O=C1C=CC(=O)N1CCN1C(=O)C=CC1=O` [Compound 10], which EC50 (ME180 cells) is on record?
The EC50 was 516 µM.

What about the EC50 (human sperm) of the same compound?
Its EC50 is 4 µM.

Which results are given for `O=C1C=CC(=O)N1c1ccc(-c2ccc(N3C(=O)C=CC3=O)cc2)cc1` [Compound 11]?
EC50 (ME180 cells): > 30 µM; EC50 (human sperm): 1.4 µM

What does the source list for `O=C1C=CC(=O)N1CCOCCOCCOCCN1C(=O)C=CC1=O` [Compound 12]?
EC50 (ME180 cells): 333 µM; EC50 (human sperm): 10.5 µM

Which EC50 (ME180 cells) does the source give for `O=C1C=CC(=O)N1c1ccc(OCCOCCOCCOCCOCCOc2ccc(N3C(=O)C=CC3=O)cc2)cc1` [Compound 13] here?
The EC50 was 125 µM.

And the EC50 (human sperm)?
The EC50 was 4.6 µM.

With `COCCOCCOCCOCCOc1ccc(N2C(=O)C=CC2=O)cc1` [Compound 14] as the compound, how does the EC50 (ME180 cells) read?
The EC50 was 285 µM.

And the EC50 (human sperm)?
The EC50 was 149 µM.

Which EC50 (ME180 cells) does the source give for `O=C1C=CC(=O)N1c1ccc(OCCOCCOCCOCCOc2ccc(N3C(=O)C=CC3=O)cc2)cc1` [Compound 15] here?
The EC50 was 153 µM.

And the EC50 (human sperm)?
Its EC50 is 5 µM.
